Source: patent publication EP1100483B1, “GLUCOCORTICOID-SELECTIVE ANTI-INFLAMMATORY AGENTS” (Abbott Laboratories, priority 1998, dated 2000)

These compounds were tested against T1, human glucocorticoid receptor-α [GRX] isoform (Homo sapiens, UniProt P04150) (assay: glucocorticoid receptor (GR) cytosol binding assay, [3H]-dexamethasone competition). Conditions: not given.
T1 construct: purchased Ligand Pharmaceuticals (San Diego, CA); host or cells: insect SF21 cells (baculovirus)
T1 sequence (P04150 1-777): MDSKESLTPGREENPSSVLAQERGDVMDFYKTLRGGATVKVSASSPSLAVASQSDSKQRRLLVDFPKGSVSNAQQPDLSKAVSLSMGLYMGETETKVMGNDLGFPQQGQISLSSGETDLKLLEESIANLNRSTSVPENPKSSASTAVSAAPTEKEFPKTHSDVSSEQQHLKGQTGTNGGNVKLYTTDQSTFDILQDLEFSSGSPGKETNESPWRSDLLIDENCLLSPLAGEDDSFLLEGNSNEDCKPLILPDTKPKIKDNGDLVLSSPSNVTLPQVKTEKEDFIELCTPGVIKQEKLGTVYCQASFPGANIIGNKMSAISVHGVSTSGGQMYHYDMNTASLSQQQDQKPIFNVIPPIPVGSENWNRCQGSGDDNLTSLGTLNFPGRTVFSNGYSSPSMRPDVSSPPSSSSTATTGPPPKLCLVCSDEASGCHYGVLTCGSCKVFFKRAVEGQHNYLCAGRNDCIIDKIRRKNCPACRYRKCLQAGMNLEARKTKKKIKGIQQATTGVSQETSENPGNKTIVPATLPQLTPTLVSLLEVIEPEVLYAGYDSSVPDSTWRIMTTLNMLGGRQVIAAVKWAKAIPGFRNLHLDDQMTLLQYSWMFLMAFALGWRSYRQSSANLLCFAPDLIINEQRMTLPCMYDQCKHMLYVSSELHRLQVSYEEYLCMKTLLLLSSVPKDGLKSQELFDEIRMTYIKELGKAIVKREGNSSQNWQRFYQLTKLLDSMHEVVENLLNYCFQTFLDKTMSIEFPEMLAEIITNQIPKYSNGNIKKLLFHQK
From the text: For glucocorticoid receptor (OR) cytosol binding assays, the procedure described in Anal. […] Briefly, cytosol preparations of human glucocorticoid receptor-α [GRX] isoform and human progesterone receptor-A [PRA] isoform were obtained from Ligand Pharmaceuticals (San Diego, CA). Both receptor cDNAs were cloned into baculovirus expression vectors and expressed in insect SF21 cells. […] Glass fiber type C multiscreen MAFC NOB plates were from Millipore ( Burlington, MA). Hydroxyapatide Bio-Gel HTP gel was obtained from Bio-Rad Laboratories (Hercules. CA). Tris(hydroxymethyl)aminomethane (Tris), ethylenediaminetetraacetic acid (EDTA), glycerol, dithiothreitol (DTT) and sodium moylybdate were obtained from Sigma Chemicals (St. Louis, MO). Microscint-20 scintillation fluid was obtained from Packard Instrument (Meriden, CT). […] GRX and PRA binding reactions were performed in Millipore Multiscreen plates. […] Specific binding was defined as the difference between binding of [^3H]Dex in the absence and in the presence of 1µM unlabeled Dex. After an overnight incubation, 50 µL of hydroxyapatite (25 % weight/volume) slurry were added to each well and plates were incubated for 10 min at 4 °C in a plate shaker. Plates were suctioned with a Millipore vacuum manifold and each well was rinsed with 300 µL of ice-cold binding buffer. A 250 µL aliquot of Packard Microscint-20 was added to each well and the wells were shaken at room temperature for 20 minutes. The amount of radioactivity was determined with a Packard TopCount plate reader.

Row | Structure (SMILES) | Ki
1 | CN(C)c1ccc(C(c2ccc(N(C)C)cc2)c2ccccc2I)cc1 [Example 26, 4',4" bis(dimethylamino)-2-iodotriphenylmethane] | 734 nM
2 | Cc1cc(C(c2ccc(N(C)C)cc2)c2cc([N+](=O)[O-])ccc2Cl)ccc1N(C)C (stereo not shown) [Example 44, 3'-methyl-4',4"-bis(dimethylamino)-2-chloro-5-nitrotriphenylmethane] | 287 nM
3 | CN(C)c1ccc(C(c2ccc(N(C)CCOC(=O)c3ccccc3)cc2)c2cc([N+](=O)[O-])ccc2Cl)cc1 (stereo not shown) [Example 50, 4'-dimethylamino-4"-(N-methyl-N-(2-benzoyloxyethyl)amino)-2-chloro-5-nitrotriphenylmethane] | 1630 nM
4 | Cc1ccccc1C(c1ccc(N(C)C)cc1)c1ccc(N(C)C)cc1 [Example 15, 4',4" bis(dimethylamino)-2-methyltriphenylmethane] | 2960 nM
5 | CN(C)c1ccc(C(c2ccc(N(C)C)cc2)c2c(Cl)cccc2Cl)cc1 [Example 20, 4',4" bis(dimethylamino)-2,6-dichlorotriphenylmethane] | 1930 nM

Same assay, conditions: [3H]-Dex ~0.9 nM, GRX cytosol, 4 °C overnight; Cheng-Prusoff; read-out: Ki (nM) GR

Row | Ki | Structure (SMILES)
6 | 1990 nM | CN(C)c1ccc(C(c2ccc(N(C)C)cc2)c2ccccc2Cl)cc1 [Example 7, 4',4" bis(dimethylamino)-2-chlorotriphenylmethane]
7 | 4650 nM | CN(C)c1ccc(C(c2ccc(N(C)C)cc2)c2ccc([N+](=O)[O-])cc2)cc1 [Example 4, 4',4" bis(dimethylamino)-4-nitrotriphenylmethane]
8 | 4600 nM | CN(C)c1ccc(C(c2ccc(N(C)C)cc2)c2cc(NC(=O)C3CC3)ccc2Cl)cc1 [Example 62, 4',4" bis(dimethylamino)-2-chloro-5-(cyclopropylcarbamido)-triphenylmethane]
9 | 4600 nM | CN(C)c1ccc(C(c2ccc(N(C)C)cc2)c2cc(N)ccc2Cl)cc1 [Example 59, 4',4" bis(dimethylamino)-5-amino-2-chlorotriphenylmethane]
10 | 2030 nM | CN(C)c1ccc(C(O)(c2ccccc2)c2ccccc2Cl)cc1 (stereo not shown) [Example 57, 4'-dimethylamino-2-chlorotriphenylmethanol]
11 | 386 nM | O=[N+]([O-])c1ccc(Cl)c(C(c2ccc(N3CCOCC3)cc2)c2ccc(N3CCOCC3)cc2)c1 [Example 22, 4',4" bis(N-morpholinyl)-2-chloro-5-nitrotriphenylmethane]
12 | 725 nM | CN(C)c1ccc(C(c2ccc(N(C)C)cc2)c2cc(Br)ccc2Cl)cc1 [Example 34, 4',4" bis(dimethylamino)-5-bromo-2-chlorotriphenylmethane]

Row | Structure (SMILES) | Ki
13 | CN(C)c1ccc(C(Nc2ccccc2)c2cc([N+](=O)[O-])ccc2Cl)cc1 (stereo not shown) [Example 55, phenyl-[(4'-dimethylaminophenyl)-(2-chloro-5-nitrophenyl)methyl] amine] | 1680 nM
